This note sets out measurements from patent publication US10071084B2, “Nanoparticle, method of preparating the same, and use of the nanoparticle” (Samsung Electronics Co., Ltd., priority 2013, dated 2018).

This test deals with HepG2 liver cancer cells. Briefly: Cytotoxicity by released nanoparticles containing SRF and BSA: cell viability, CCK-8 kit. Conditions: Homo sapiens, 50 μM SRF dissolved in DMSO, 3 hours incubation at 37° C., then 3 days in fresh medium, relative to DMSO-treated cells. The class given is cell-based. How it is done: Liposomes that were sonicated were incubated with cells to confirm the cell viability.
The liposomes of Example 4 were sonicated at a temperature of 25° C. for 16 minutes by using a pool-type sonicator (Branson).
The sonicated liposomes, unsonicated liposomes, 50 μM of SRF (Santa Cruz Biotechnology, Inc.) dissolved in dimethyl sulfoxide (DMSO) (Aldrich), or DMSO itself was added to about 5,000 HepG2 liver cancer cells, followed by being incubated at a temperature of 37° C. for 3 hours. Here, the medium used in the incubation was exchanged with fresh medium. The cells were incubated for at a temperature of 37° C. for 3 days, and number of the cells was counted by using a CCK-8 kit (Dojindo). The cell viability was relatively calculated with respect to the number of the cells that were treated with DMSO, and the results were shown in FIG. 7 (1: DMSO, 2: SRF dissolved in DMSO, 3: liposomes that are not sonicated, 4: liposomes that are sonicated for 16 minutes).

Turning to `CNC(=O)c1cc(Oc2ccc(NC(=O)Nc3ccc(Cl)c(C(F)(F)F)c3)cc2)ccn1` [SRF, sorafenib], the viability at 50 µM is roughly 36%.
